Data set [1] in a line: Example 9 pharmacokinetics assay for the PK and PD study Part I, II and III (plasma, tumor, liver). The data set is classed as in vivo, BALB/c nude mice. The following applies: mouse, po, 10 mg/kg, p.o., single dose, ± SEM. How it is done:
For the PK and PD study Part I, agents were administered to BALB/c nude mice bearing A375 human melanoma xenografts tumors. Dabrafenib, Compound 218 and Compound 157 were dosed via p.o. once on day 1. Dabrafenib was dosed at 100 mg/kg. Compound 218 and Compound 157 were dosed at 10 mg/kg.
For the PK and PD study Part II, agents were administered to BALB/c nude mice bearing A375 human melanoma xenografts tumors. Compound 133, Compound 144 and Compound 198 were dosed at 10 mg/kg via p.o. once on day 1.
For the PK and PD study Part III, agent was administered to BALB/c nude mice bearing A375 human melanoma xenografts tumors. Compound 204 were dosed at 10 mg/kg via p.o. once on day 1.
The plasma samples were collected at predetermined time points for PK analysis. The mice were euthanized at predetermined time points post the treatment. The blood samples were collected into the 1.5 mL Eppendorf tubes containing 15 μL of 0.5 M EDTA-K2. And then the anticoagulant blood samples were centrifuged at 2,500 g at 4° C. for 15 minutes. The plasma samples were separated into 2 aliquots. The 1st was used for PK analysis, and the 2nd served as backup. The samples were stored at −80° C. before bioanalysis.
The tumor samples were collected at predetermined time points for PK and WB analysis. The tumor was dissected out and split into 3 parts. The 1st part was used for PK analysis, the 2nd part was used for WB analysis and the last one served as backup for study. The samples were transferred into pre-labeled tubes and quickly froze in liquid nitrogen within 2 minutes after dissection. The samples were stored at −80° C. before bioanalysis.
Liver samples were collected at predetermined time points for PK analysis. The left lobe of the liver was dissected out and split into 2 parts. The 1st part was used for PK analysis and the 2nd part served as the backup for the study. The samples were transferred into pre-labeled tubes and quickly froze in liquid nitrogen within 2 minutes after dissection. The samples were stored at −80° C. before bioanalysis.
The harvested plasma, tumor and liver samples were processed for pharmacokinetics analysis by LC-MS/MS with a concentration range of 5.00-10,000 ng/mL for Compound 218, Compound 157 and Compound 133 in plasma, 0.500-1,000 ng/ml for Compound 218 in liver and tumor homogenate, 0.200-400 ng/mL for Compound 157, Dabrafenib and Compound 133 in liver and tumor homogenate, 0.500-1000 ng/mL for Dabrafenib and Compound 204 in plasma, 0.200-200 ng/mL for Compound 204 in liver and tumor homogenate, 20.0-20,000 ng/mL for Compound 144 and Compound 198 in plasma, 1.00-1,000 ng/mL for Compound 144 and Compound 198 in liver and tumor homogenate.

In data set [2] the target is T1, human bile salt export pump (BSEP) efflux transporter (Homo sapiens, UniProt O95342).
T1 construct: purchased SOLVO Biotechnology Charles River Laboratories, Szeged, Hungary; host or cells: HEK293 (inside out membrane vesicles)
Put plainly: BSEP Vesicular Transport Inhibition Assay (IC50 determination). The following applies: human BSEP (HEK293) vesicles; taurocholate 0.2 μM; 4 mM Mg-ATP; 10 concentrations, 1 replicate. It is filed as biochemical. In outline: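 Inside-out membrane vesicles from HEK293 cells expressing human BSEP were incubated with taurocholate probe substrate and compound (10 concentrations, single replicate) with 4 mM Mg-ATP, or 4 mM AMP for background, for 5 min at 37 °C. Vesicle-trapped substrate was quantified by liquid scintillation counting after filtration.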

Where [3] appears, read: liver, read-out: Mean Concentration in Liver.
[4] abbreviates: plasma, read-out: Mean Concentration in Plasma.
Setting [5] is: tumor, read-out: Mean Concentration in Tumor.

Read-outs that look alike come from different tables or passages of the source.

T1 sequence (O95342 whole entry): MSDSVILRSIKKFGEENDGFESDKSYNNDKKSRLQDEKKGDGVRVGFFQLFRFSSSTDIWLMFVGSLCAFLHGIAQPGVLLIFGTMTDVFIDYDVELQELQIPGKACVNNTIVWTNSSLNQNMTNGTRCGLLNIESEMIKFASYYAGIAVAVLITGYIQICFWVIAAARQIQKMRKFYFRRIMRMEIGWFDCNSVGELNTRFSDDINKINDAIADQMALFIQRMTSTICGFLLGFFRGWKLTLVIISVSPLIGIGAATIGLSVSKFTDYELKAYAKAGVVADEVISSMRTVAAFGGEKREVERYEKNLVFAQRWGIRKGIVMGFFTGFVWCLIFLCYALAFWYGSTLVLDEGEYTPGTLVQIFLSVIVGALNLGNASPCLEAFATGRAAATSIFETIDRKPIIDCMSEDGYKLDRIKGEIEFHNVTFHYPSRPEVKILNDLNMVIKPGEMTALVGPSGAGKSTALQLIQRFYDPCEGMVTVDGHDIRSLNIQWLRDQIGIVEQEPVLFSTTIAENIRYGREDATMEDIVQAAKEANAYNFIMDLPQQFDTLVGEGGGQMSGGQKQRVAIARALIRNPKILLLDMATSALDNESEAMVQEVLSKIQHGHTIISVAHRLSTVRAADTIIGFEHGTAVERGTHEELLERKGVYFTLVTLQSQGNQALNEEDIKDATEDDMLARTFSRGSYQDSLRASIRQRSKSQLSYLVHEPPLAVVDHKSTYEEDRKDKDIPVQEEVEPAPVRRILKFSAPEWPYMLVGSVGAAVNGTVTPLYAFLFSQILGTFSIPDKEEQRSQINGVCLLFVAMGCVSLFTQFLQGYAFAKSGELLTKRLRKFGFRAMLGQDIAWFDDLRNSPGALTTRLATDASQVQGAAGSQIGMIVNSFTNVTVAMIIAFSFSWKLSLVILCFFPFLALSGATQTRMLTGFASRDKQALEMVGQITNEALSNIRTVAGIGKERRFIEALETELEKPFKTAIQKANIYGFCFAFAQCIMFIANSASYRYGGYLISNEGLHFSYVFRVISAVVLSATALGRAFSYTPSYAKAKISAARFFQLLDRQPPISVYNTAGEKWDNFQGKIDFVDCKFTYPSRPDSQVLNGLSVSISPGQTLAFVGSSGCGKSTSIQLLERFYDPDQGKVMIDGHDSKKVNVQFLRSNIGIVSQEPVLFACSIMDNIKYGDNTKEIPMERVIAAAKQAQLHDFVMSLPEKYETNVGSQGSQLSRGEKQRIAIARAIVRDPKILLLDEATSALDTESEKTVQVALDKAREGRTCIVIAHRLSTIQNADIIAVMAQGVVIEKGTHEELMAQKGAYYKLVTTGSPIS

`CO[C@H]1CCN(S(=O)(=O)Nc2ccc(F)c(Oc3ccc4ncn([C@H]5COC6(CCN(C7CC8(C7)CN(c7cc9c(cc7F)c(N7CCC(=O)NC7=O)nn9C)C8)CC6)C5)c(=O)c4c3)c2C#N)C1` [Compound 157, (3S)-N-[2-cyano-3-[3-[(3R)-8-[2-[3-(2,4-dioxohexahydropyrimidin-1-yl)-5-fluoro-1-methyl-indazol-6-yl]-2-azaspiro[3.3]heptan-6-yl]-1-oxa-8-azaspiro[4.5]decan-3-yl]-4-oxo-quinazolin-6-yl]oxy-4-fluoro-phenyl]-3-methoxy-pyrrolidine-1-sulfonamide]: in data set [1] (setting [3]), the concentration at 6 h was found to be 2000 ± 132 ng/g and the concentration at 12 h is 1320 ± 233 ng/g. In addition, in data set [1] (setting [4]), the concentration at 1 h is 14700 ± 2000 ng/mL, the concentration at 6 h came to 14700 ± 1560 ng/mL, the concentration at 12 h was 5420 ± 1400 ng/mL and the concentration at 24 h is 161 ± 40.1 ng/mL. Further, in data set [1] (setting [5]), the concentration at 1 h came out at 1460 ± 376 ng/g, the concentration at 6 h was found to be 1990 ± 120 ng/g, the concentration at 12 h is 1470 ± 329 ng/g and the concentration at 24 h stood at 183 ± 137 ng/g. The BSEP Inhibition/IC50 in data set [2] was found to be 8.83 µM.

These data come from patent US20260297060A1, “COMPOUNDS FOR THE DEGRADATION OF MUTANT BRAF” (C4 THERAPEUTICS, INC., priority 2023, published 2026).
